Results: ChEMBL document CHEMBL4311978, “Transferrin conjugates of antitubercular drug isoniazid: Synthesis and in vitro efficacy” (Eur J Med Chem, 2019)
Converted amounts (≈) assume the structure as drawn. The source made the active and inactive calls. No cut-off for these calls is given here.

Columns and labels:
[1] = test system: Mycobacterium tuberculosis; assay: Antitubercular activity against Mycobacterium tuberculosis H37Rv assessed as reduction in bacterial cell viability incubated for 5 days by microplate alamar blue assay; format: functional; conditions: 120 h
[2] = test system: Mycobacterium tuberculosis; assay: Antitubercular activity against Mycobacterium tuberculosis H37Rv infected in human THP1 cells assessed as reduction in CFU incubated for 48 hrs; format: functional, organism-based
THP-1 = assay: Cytotoxicity against human THP1 cells assessed as reduction in cell viability incubated for 48 hrs by MTT assay; format: cell-based; conditions: THP-1, 48 h

In the case of NNC(=O)c1ccncc1 [ISONIAZID], the MIC90 [1] is reported as 0.25 µg/mL (≈ 1.82 µM), the Activity [2] is reported as “Active” and the IC50 (THP-1) is reported as > 25 µg/mL.
